Experimental data reported in patent publication US12410185B2, “Compounds targeting mutant calreticulin” (MYELOPRO DIAGNOSTICS AND RESEARCH GmbH, priority 2018, dated 2025).

Key:
mutant calreticulin [1] = experiment: Western blot analysis of hematoxylin-resistant clones; type: cell-based, mouse; conditions: 24 h treatment
Description: FIG. 22: Western blot analysis of hematoxylin resistant clones. All cells were treated for 24 h with hematoxylin before collection.
(§1) Ba/F3-MPL CALR del79/WT and CALR del37/del37 cell lines were cultured with 20 uM of hematoxylin with or without 5% TPO continuously for 4 weeks. The cells were passaged every 3 days and seeded at 0.5 million per well in 6-well plates with addition of fresh hematoxylin and cytokine.
2 million Ba/F3-MPL CALR WT or mutant cells were treated with hematoxylin or the equivalent volume of DMSO in a total volume of 15 ml of RPMI media in T75 flasks (Thermal Fisher Scientific). Cells were collected and washed with PBS before being lysed in whole cell lysis buffer containing 20 mM HEPES, 20% glycerol, 50 mM KCl, 400 mM NaCl, 1 mM EDTA, 1 mM DTT, 5 mM Na orthovanadate, 0.5% NP40, 0.1% Tween 20, supplemented with cOmplete™, Mini, EDTA-free Protease Inhibitor Cocktail (Sigma) and PhosSTOP™ (Sigma). Samples were rotated at 4° C. for 20 min prior to centrifugation at […] for 20 min. The soluble fraction of the sample was collected. Protein concentration was quantified by the Bio-Rad Protein Assay (Bio-Rad) according to the manufacturer's instructions and measured by a SpectraMax Microplate Reader (Molecular Devices). […] Mutant calreticulin was detected by a polyclonal rabbit antibody against the mutant specific C-terminal peptide (Myelopro). […]

[2] = tested on: hematoxylin-resistant Ba/F3-MPL CALR mutant cell lines; experiment: dose response test in hematoxylin-resistant cell lines; type: cell-based, mouse; conditions: lines selected under 20 uM hematoxylin for 4 weeks
Description: FIG. 21: Dose response of hematoxylin in Ba/F3-MPL resistant cell lines. Ba/F3-MPL CALR del79/WT and Ba/F3-MPL CALR del37/del37 were cultured with hematoxylin at a concentration of 20 uM for 4 weeks. CALR del79/WT resistant clone 1 and CALR del37/del37 resistant clone were cultured without cytokine. CALR del79/WT resistant clone 2 were cultured with 5% TPO.
as §1

wild-type calreticulin = target: T1, wild-type calreticulin (Mus musculus, UniProt P14211); experiment: Western blot analysis of Ba/F3-MPL cell lines; type: cell-based; conditions: 20 uM, 24 hours
T1 construct: endogenous in cells; host or cells: Ba/F3-MPL CALR WT and CALR WT/del79 cell lines
Description: (§2) 2 million Ba/F3-MPL CALR WT or mutant cells were treated with hematoxylin or the equivalent volume of DMSO in a total volume of 15 ml of RPMI media in T75 flasks (Thermal Fisher Scientific). Cells were collected and washed with PBS before being lysed in whole cell lysis buffer containing 20 mM HEPES, 20% glycerol, 50 mM KCl, 400 mM NaCl, 1 mM EDTA, 1 mM DTT, 5 mM Na orthovanadate, 0.5% NP40, 0.1% Tween 20, supplemented with cOmplete™, Mini, EDTA-free Protease Inhibitor Cocktail (Sigma) and PhosSTOP™ (Sigma). Samples were rotated at 4° C. for 20 min prior to centrifugation at […] for 20 min. The soluble fraction of the sample was collected. Protein concentration was quantified by the Bio-Rad Protein Assay (Bio-Rad) according to the manufacturer's instructions and measured by a SpectraMax Microplate Reader (Molecular Devices). Equal amounts of protein were loaded for 8% or 10% SDS-polyacrylamide gel electrophoresis prior to transfer to Amersham™ Protran® nitrocellulose membranes at 35V, 4° C. overnight. Membranes were then blocked by 5% bovine serum albumin fraction V (Sigma) or milk. Mutant calreticulin was detected by a polyclonal rabbit antibody against the mutant specific C-terminal peptide (Myelopro). […]

CALR expression (mRNA) = experiment: Real-time PCR analysis of Ba/F3-MPL cell lines; type: cell-based, mouse; conditions: 20 uM, 24 h
Description: FIG. 19: Real-time PCR analysis of Ba/F3-MPL cell lines after a 24 h treatment with hematoxylin. Ba/F3-MPL CALR WT, CALR homozygous mutant del37/del37 cell line were treated with 20 uM hematoxylin or an equivalent amount of DMSO as control for 24 h before cell collection and RNA extraction. **P<0.01; ***P<0.001
1 million cells from each sample were collected and washed with PBS twice. RNA samples were extracted by using the RNeasy Mini Kit (Qiagen). Taqman® Gene Expression Assays (Mm01545399_m1) was used to quantify the expression of CALR, and the real-time PCR reaction was performed using a 7500 Fast Real-Time PCR machine (Applied Biosystems™). Statistical test was calculated by Graphpad Prism 7.0 using the two-tailed Student's t test.

STAT5 phosphorylation = experiment: Western blot time-course, Ba/F3-MPL CALR WT/del79; type: cell-based; conditions: 8-hour time point
Description: as §2

PARP cleavage = experiment: Western blot time-course, Ba/F3-MPL CALR WT/del79; type: cell-based; conditions: 8-hour time point
Description: as §2

[3] = tested on: CD34+ cells from CALR mutated patients; experiment: colony formation assay; type: cell-based, human; conditions: 40 uM hematoxylin vs DMSO
Description: CD34-positive cells from healthy controls and CALR mutant patients were isolated by EasySep™ Human CD34 Positive Selection Kit (#18056; [sequence] Technologies) according to the manufacturer's instructions. StemSpan™ SFEM II (#09655 or #17856; [sequence] Technologies) supplemented with 1× StemSpan™ CD34+ Expansion Supplement (#02691; [sequence] Technologies) was used to culture and expand the isolated CD34-positive cells, preferably for no more than 8 days before experiments or storage. 1000 human CD34-positive cells were plated in 1 ml of Methocult classic medium ([sequence] Technologies, #H4434) with 40 uM hematoxylin or DMSO control. Cells were incubated for 14 days before colony counting. Statistical test was calculated using two-way ANOVA with Sidak's multiple comparisons test.

mutant calreticulin [4] = target: T2, mutant calreticulin (Homo sapiens, UniProt P27797); experiment: Western blot analysis of CD34-positive cells from a CALR ins5 mutant patient; type: cell-based; set-up: dose or concentration left out as unconfirmed; conditions: hematoxylin, 8 hours
T2 construct: CD34-positive cells isolated from a healthy control and a CALR ins5 mutant patient; endogenous in cells; host or cells: primary CD34-positive cells from a CALR ins5 mutant patient
Description: as §2

T1 sequence (P14211 18-416): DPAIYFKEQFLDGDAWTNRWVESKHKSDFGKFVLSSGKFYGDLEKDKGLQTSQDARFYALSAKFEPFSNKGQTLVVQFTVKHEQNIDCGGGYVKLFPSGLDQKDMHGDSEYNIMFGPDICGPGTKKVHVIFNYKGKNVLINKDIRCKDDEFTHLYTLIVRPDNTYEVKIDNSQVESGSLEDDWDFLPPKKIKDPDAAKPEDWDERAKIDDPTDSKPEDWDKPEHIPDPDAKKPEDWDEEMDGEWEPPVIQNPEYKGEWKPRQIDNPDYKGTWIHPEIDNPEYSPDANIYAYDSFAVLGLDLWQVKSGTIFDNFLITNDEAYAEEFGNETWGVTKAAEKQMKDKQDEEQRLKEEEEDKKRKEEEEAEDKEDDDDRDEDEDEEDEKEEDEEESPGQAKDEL
T2 sequence (P27797 with tags, fused parts or gaps, stated change not applied): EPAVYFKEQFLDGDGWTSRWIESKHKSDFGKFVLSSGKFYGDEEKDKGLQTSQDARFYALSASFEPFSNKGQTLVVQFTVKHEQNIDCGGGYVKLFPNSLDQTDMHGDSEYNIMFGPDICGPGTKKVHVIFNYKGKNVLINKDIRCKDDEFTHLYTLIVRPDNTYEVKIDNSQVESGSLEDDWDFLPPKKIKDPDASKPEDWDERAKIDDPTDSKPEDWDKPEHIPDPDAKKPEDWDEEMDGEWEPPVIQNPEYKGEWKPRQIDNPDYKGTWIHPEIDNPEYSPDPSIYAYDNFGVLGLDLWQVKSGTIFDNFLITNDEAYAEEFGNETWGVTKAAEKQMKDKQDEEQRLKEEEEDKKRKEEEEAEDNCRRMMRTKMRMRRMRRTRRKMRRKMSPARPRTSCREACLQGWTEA

Compound: Oc1cc2c(cc1O)[C@@H]1c3ccc(O)c(O)c3OC[C@]1(O)C2 [hematoxylin, Hematoxylin]
- compound-induced down-regulation of mutant calreticulin in resistant cell lines (mutant calreticulin [1]): resistance towards the compound-induced down-regulation
- viability of resistant cell lines in response to the treatment [2]: Increased viability
- wild-type calreticulin protein level (wild-type calreticulin; CALR WT cell line): not affected
- wild-type calreticulin protein level (wild-type calreticulin; CALR heterozygous mutant cell line): up-regulation
- magnitude of change (up-regulation) of wild-type and mutant CALR mRNA expression (CALR expression (mRNA)): around 1.3 fold
- STAT5 phosphorylation (STAT5 phosphorylation): decrease
- PARP cleavage (apoptotic marker) (PARP cleavage): upregulation
- number of colony forming units [3]: significantly reduced
- protein abundance of mutant calreticulin (mutant calreticulin [4]): drastically reduced
